Converted amounts (≈) assume the structure as drawn. Non-standard residues stand in square brackets, D forms with d. Residues, ends and D or L forms follow the SMILES beside them. Ava = NCCCCC(=O)O
Tests used:
C. parapsilosis = details: 24 h
C. tropicalis = details: 24 h
Scedosporium spp. = details: 72 h
C. albicans = details: 24 h
C. glabrata = details: 24 h
C. dubliniensis = details: 24 h
C. neoformans = details: 72 h
C. auris = details: 24 h
C. gattii = details: 72 h
C. krusei = details: 24 h

SMILES	MIC C. parapsilosis (C. parapsilosis) [µg/mL]	MIC C. tropicalis (C. tropicalis) [µg/mL]	MIC Range Scedosporium spp. (Scedosporium spp.) [µg/mL]	MIC C. albicans (C. albicans) [µg/mL]	MIC C. glabrata (C. glabrata) [µg/mL]	MIC Range Lomentospora prolificans (Lomentospora prolificans) [µg/mL]	MIC C. dubliniensis (C. dubliniensis) [µg/mL]	MIC C. neoformans (C. neoformans) [µg/mL]	MIC C. auris (C. auris) [µg/mL]	MIC C. gattii (C. gattii) [µg/mL]	MIC C. krusei (C. krusei) [µg/mL]
N=C(N)NCCC[C@@H](N)C(=O)N[C@@H](CCCNC(=N)N)C(=O)NCCCCC(=O)N[C@H](CCCNC(=N)N)C(=O)N[C@@H](CCCNC(=N)N)C(=O)N[C@H](CCCNC(=N)N)C(=O)NCCCCC(=O)N[C@H](CCCNC(=N)N)C(=O)N[C@@H](CCCNC(=N)N)C(=O)N[C@H](CCCNC(=N)N)C(=O)NCCCCC(=O)N[C@H](CCCNC(=N)N)C(=O)N[C@@H](CCCNC(=N)N)C(N)=O [SEQ ID NO: 23, rR-(Ava)-rRr-(Ava)-rRr-(Ava)-rR-NH2] (H-[dR]R[Ava][dR]R[dR][Ava][dR]R[dR][Ava][dR]R-NH2)	0.25 (≈ 0.133 µM)	1 (≈ 0.533 µM)	16 to 32	2 (≈ 1.07 µM)	4 (≈ 2.13 µM)	>32	1 (≈ 0.533 µM)	8 (≈ 4.26 µM)	>32	2 (≈ 1.07 µM)	4 (≈ 2.13 µM)
N=C(N)NCCC[C@@H](N)C(=O)N[C@@H](CCCNC(=N)N)C(=O)N[C@H](CCCNC(=N)N)C(=O)NCCCCC(=O)N[C@H](CCCNC(=N)N)C(=O)N[C@@H](CCCNC(=N)N)C(=O)NCCCCC(=O)N[C@H](CCCNC(=N)N)C(=O)N[C@@H](CCCNC(=N)N)C(=O)N[C@H](CCCNC(=N)N)C(=O)NCCCCC(=O)N[C@H](CCCNC(=N)N)C(=O)N[C@@H](CCCNC(=N)N)C(N)=O [SEQ ID NO: 24, rRr-(Ava)-rR-(Ava)-rRr-(Ava)-rR-NH2] (H-[dR]R[dR][Ava][dR]R[Ava][dR]R[dR][Ava][dR]R-NH2)	0.25 (≈ 0.133 µM)	1 (≈ 0.533 µM)	8 to 32	2 (≈ 1.07 µM)	8 (≈ 4.26 µM)	>32	1 (≈ 0.533 µM)	16 (≈ 8.53 µM)	>32	4 (≈ 2.13 µM)	8 (≈ 4.26 µM)
N=C(N)NCCC[C@@H](N)C(=O)N[C@@H](CCCNC(=N)N)C(=O)NCCCCC(=O)N[C@H](CCCNC(=N)N)C(=O)N[C@@H](CCCNC(=N)N)C(=O)N[C@H](CCCNC(=N)N)C(=O)NCCCCC(=O)N[C@H](CCCNC(=N)N)C(=O)N[C@@H](CCCNC(=N)N)C(=O)NCCCCC(=O)N[C@H](CCCNC(=N)N)C(=O)N[C@@H](CCCNC(=N)N)C(=O)N[C@H](CCCNC(=N)N)C(N)=O [SEQ ID NO: 25, rR-(Ava)-rRr-(Ava)-rR-(Ava)-rRr-NH2] (H-[dR]R[Ava][dR]R[dR][Ava][dR]R[Ava][dR]R[dR]-NH2)	0.5 (≈ 0.266 µM)	2 (≈ 1.07 µM)	16 to 32	4 (≈ 2.13 µM)	8 (≈ 4.26 µM)	>32	2 (≈ 1.07 µM)	32 (≈ 17.1 µM)	>32	4 (≈ 2.13 µM)	16 (≈ 8.53 µM)
N=C(N)NCCC[C@@H](N)C(=O)N[C@@H](CCCNC(=N)N)C(=O)NCCCCC(=O)N[C@H](CCCNC(=N)N)C(=O)N[C@@H](CCCNC(=N)N)C(=O)NCCCCC(=O)N[C@H](CCCNC(=N)N)C(=O)N[C@@H](CCCNC(=N)N)C(=O)N[C@H](CCCNC(=N)N)C(=O)NCCCCC(=O)N[C@H](CCCNC(=N)N)C(=O)N[C@@H](CCCNC(=N)N)C(=O)N[C@H](CCCNC(=N)N)C(N)=O [SEQ ID NO: 26, rR-(Ava)-rR-(Ava)-rRr-(Ava)-rRr-NH2] (H-[dR]R[Ava][dR]R[Ava][dR]R[dR][Ava][dR]R[dR]-NH2)	0.5 (≈ 0.266 µM)	2 (≈ 1.07 µM)	16 to 32	8 (≈ 4.26 µM)	8 (≈ 4.26 µM)	32 (≈ 17.1 µM)	4 (≈ 2.13 µM)	16 (≈ 8.53 µM)	>32	4 (≈ 2.13 µM)	8 (≈ 4.26 µM)

Further lines, results first:

MIC C. parapsilosis (C. parapsilosis) [µg/mL]	MIC C. tropicalis (C. tropicalis) [µg/mL]	MIC Range Scedosporium spp. (Scedosporium spp.) [µg/mL]	MIC C. albicans (C. albicans) [µg/mL]	MIC C. glabrata (C. glabrata) [µg/mL]	MIC Range Lomentospora prolificans (Lomentospora prolificans) [µg/mL]	MIC C. dubliniensis (C. dubliniensis) [µg/mL]	MIC C. neoformans (C. neoformans) [µg/mL]	MIC C. auris (C. auris) [µg/mL]	MIC C. gattii (C. gattii) [µg/mL]	MIC C. krusei (C. krusei) [µg/mL]	SMILES
0.25 (≈ 0.133 µM)	1 (≈ 0.533 µM)	8 to 16	2 (≈ 1.07 µM)	8 (≈ 4.26 µM)	32 (≈ 17.1 µM)	1 (≈ 0.533 µM)	8 (≈ 4.26 µM)	>32	2 (≈ 1.07 µM)	8 (≈ 4.26 µM)	N=C(N)NCCC[C@@H](N)C(=O)N[C@@H](CCCNC(=N)N)C(=O)N[C@H](CCCNC(=N)N)C(=O)NCCCCC(=O)N[C@H](CCCNC(=N)N)C(=O)N[C@@H](CCCNC(=N)N)C(=O)N[C@H](CCCNC(=N)N)C(=O)NCCCCC(=O)N[C@H](CCCNC(=N)N)C(=O)N[C@@H](CCCNC(=N)N)C(=O)NCCCCC(=O)N[C@H](CCCNC(=N)N)C(=O)N[C@@H](CCCNC(=N)N)C(N)=O [SEQ ID NO: 27, rRr-(Ava)-rRr-(Ava)-rR-(Ava)-rR-NH2] (H-[dR]R[dR][Ava][dR]R[dR][Ava][dR]R[Ava][dR]R-NH2)
0.5 (≈ 0.267 µM)	1 (≈ 0.535 µM)	8 (≈ 4.28 µM)	0.25 (≈ 0.134 µM)	2 (≈ 1.07 µM)	>32	0.5 (≈ 0.267 µM)	8 (≈ 4.28 µM)	>32	2 (≈ 1.07 µM)	2 (≈ 1.07 µM)	N=C(N)NCCC[C@@H](N)C(=O)N[C@@H](CCCNC(=N)N)C(=O)N[C@H](CCCNC(=N)N)C(=O)N1CCC[C@H]1C(=O)N[C@H](CCCNC(=N)N)C(=O)N[C@@H](CCCNC(=N)N)C(=O)N1CCC[C@H]1C(=O)N[C@H](CCCNC(=N)N)C(=O)N[C@@H](CCCNC(=N)N)C(=O)N[C@H](CCCNC(=N)N)C(=O)N1CCC[C@H]1C(=O)N[C@H](CCCNC(=N)N)C(=O)N[C@@H](CCCNC(=N)N)C(N)=O [SEQ ID NO: 68, rRr-P-rR-P-rRr-P-rR-NH2] (H-[dR]R[dR]P[dR]RP[dR]R[dR]P[dR]R-NH2)
0.5 (≈ 0.267 µM)	0.5 (≈ 0.267 µM)	8 to 16	0.25 (≈ 0.134 µM)	2 (≈ 1.07 µM)	32 (≈ 17.1 µM)	0.25 (≈ 0.134 µM)	8 (≈ 4.28 µM)	>32	2 (≈ 1.07 µM)	1 (≈ 0.535 µM)	N=C(N)NCCC[C@@H](N)C(=O)N[C@@H](CCCNC(=N)N)C(=O)N[C@H](CCCNC(=N)N)C(=O)N1CCC[C@H]1C(=O)N[C@H](CCCNC(=N)N)C(=O)N[C@@H](CCCNC(=N)N)C(=O)N[C@H](CCCNC(=N)N)C(=O)N1CCC[C@H]1C(=O)N[C@H](CCCNC(=N)N)C(=O)N[C@@H](CCCNC(=N)N)C(=O)N1CCC[C@H]1C(=O)N[C@H](CCCNC(=N)N)C(=O)N[C@@H](CCCNC(=N)N)C(N)=O [SEQ ID NO: 69, rRr-P-rRr-P-rR-P-rR-NH2] (H-[dR]R[dR]P[dR]R[dR]P[dR]RP[dR]R-NH2)
0.25 (≈ 0.134 µM)	0.5 (≈ 0.267 µM)	4 to 8	0.5 (≈ 0.267 µM)	1 (≈ 0.535 µM)	8 (≈ 4.28 µM)	1 (≈ 0.535 µM)	8 (≈ 4.28 µM)	>32	4 (≈ 2.14 µM)	2 (≈ 1.07 µM)	N=C(N)NCCC[C@@H](N)C(=O)N[C@@H](CCCNC(=N)N)C(=O)N1CCC[C@H]1C(=O)N[C@H](CCCNC(=N)N)C(=O)N[C@@H](CCCNC(=N)N)C(=O)N[C@H](CCCNC(=N)N)C(=O)N1CCC[C@H]1C(=O)N[C@H](CCCNC(=N)N)C(=O)N[C@@H](CCCNC(=N)N)C(=O)N[C@H](CCCNC(=N)N)C(=O)N1CCC[C@H]1C(=O)N[C@H](CCCNC(=N)N)C(=O)N[C@@H](CCCNC(=N)N)C(N)=O [SEQ ID NO: 71, rR-P-rRr-P-rRr-P-rR-NH2] (H-[dR]RP[dR]R[dR]P[dR]R[dR]P[dR]R-NH2)

Source: patent US20240360177A1, “PEPTIDES WITH ANTIMICROBIAL ACTIVITIES” (priority 2021, published 2024)
